Molecules are shown by their SMILES. Where “and” joins values, the source holds several entries; their conditions need not be identical. Identical values can stand only once.

The test system of experiment [1] is LoVo human colon carcinoma cells. Put plainly: Viability assay (LDH release), LoVo. In kind it is cell-based. As to conditions: for viability at 200 µg/mL: 48 h, read-out: Mean % of viable cells ± SD, LoVo; for IC50: from concentration–response curves. In short, it runs like this: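 LoVo human colon carcinoma cells were grown for 24 h at 37 °C in a humidified 5% CO2 incubator in Dulbecco's Modified Eagle's Medium containing 10% FBS, then exposed to test samples for 48 h. Lactate dehydrogenase released into the supernatant was measured by ELISA end-point assay at 550 nm, using 0.1% Triton X-100 as positive control and medium alone as negative control. Viability was reported as mean % ± SD (n = 3) and compared against HUVEC cells.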

The subject of experiment [2] is LoVo carcinoma cells. Put plainly: Annexin-V-FITC/PI flow cytometry, LoVo. The experiment is classed as cell-based, human. The following applies: 50 µg/mL, 48 h; for Early apoptotic cells (Annexin-V positive, PI negative): lower right quadrant; for Late apoptotic cells (Annexin-V and PI positive): upper right quadrant. As to the method:
In order to examine the effect of compounds 3a and 3f on the apoptosis of HCT-116 and LoVo carcinoma cells, the Annexin-V-FITC probe was used and flow cytometry analyses were performed (Figure 7).
The percentages of the early apoptotic cells (Annexin-V positive and propidium iodide, PI negative) and late apoptotic cells (both Annexin-V and PI positive) were then calculated. Annexin V-PI staining was also performed to distinguish apoptotic and necrotic cell deaths.
The distribution of early and late apoptotic cells after treatment with compounds 3a and 3f was carried out using an Annexin V-FITC Apoptosis Detection Kit (BioVisionResearch Products—USA). HCT-116 and LoVo carcinoma cells were seeded in 60 mm^2 culture dishes and treated with the vehicles DMSO, and compounds 3a and 3f (50 µg/mL) for 48 h. Cells were then harvested, washed twice with PBS and resuspended in an Annexin-V binding buffer (BioVisionResearch Products—USA). Finally, the cells were stained with Annexin V-FITC and propidium iodide (PI). The fluorescent intensity of the stained cancer cells was determined using an FITC signal detector (usually FL1) and PI staining with the phycoerythrin emission signal detector (through quadrant statistics for necrotic and apoptotic cell populations).

In experiment [3] the test system is LoVo carcinoma cells. Put plainly: Cell cycle assay (PI flow cytometry), LoVo. In kind it is cell-based, human. As to conditions: 50 µg/mL, 48 h. As to the method:
In the current study, the cell cycle distribution of the treated HCT-116 and LoVo carcinoma cells with compounds 3a and 3f was assessed by labeling the cell’s DNA with PI stain in order to determine if the induction of apoptosis in carcinoma cells could be related to the cell cycle arrest (Figure 8A–F). The intensity of the PI stain is proportional to the cell’s DNA content (Figure 9). […] The ability of the tested compounds (3a and 3f) to block the cell cycle progression in LoVo and HCT-116 cells confirmed their anticancer potential against these colon carcinoma cell lines and could explain the mechanism of the observed cytotoxicity.
Changes in cell cycle distribution induced by compounds 3a and 3f were analyzed using a flow cytometric analysis according to Nicoletti et al. 1991 [108] using a Propidium Iodide Flow Cytometry Kit for Cell Cycle Analysis (Abcam-UK). HCT-116 and LoVo carcinoma cells (5 × 10^4 cells/mL) were treated with DMSO as a negative control, and compounds 3a and 3f (50 µg/mL), for 48 h. After the centrifugation of the treated cells at 1800 rpm for 5 min, the pellet was washed twice with PBS. Then, the cells were fixed by mixing […] of 90% cold ethanol, and stained with propidium iodide (PI) for 1 h at 37 °C. […] The stained cells were analyzed for their DNA content using a BD FACSC flow cytometer.
(In general: Flow cytometry measures light scatter and fluorescence of single cells or particles in a stream.)

In experiment [4] the target is purified recombinant human LDHA protein (Homo sapiens, UniProt P00338). Put plainly: Lactate dehydrogenase A (LDHA) inhibitory assay. The experiment is classed as biochemical. The following applies: for Fold change of LDHA inhibition as compared to 0.1 mg/mL: % inhibition at 0.200 mg/mL divided by % inhibition at 0.100 mg/mL; for inhibition at 100 µg/mL: at 0.1 mg/mL; for inhibition at 100 µg/mL / inhibition at 200 µg/mL: read-out: LDHA mean % inhibition ± SD; for inhibition at 200 µg/mL: at 0.2 mg/mL. As to the method: The LDHA inhibitory effectiveness was investigated by measuring the amounts of consumed NADH [73]. […] The fluorescence of NADH, which has an excitation wavelength of 340 nm and an emission wavelength of 460 nm, was detected using a spectrofluorometer. […] The LDHA inhibitory efficiency was expressed as an inhibition percentage, which was determined via a comparison with the negative control experiments.

What is called IC50 is the concentration that inhibits the measured activity by half. Broadly, the inhibition is the percentage by which the read-out fell short of the control. Regarding `O=c1c2cc(Cl)ccc2[nH]c(=S)n1-c1ccc([N+](=O)[O-])cc1` [Compound 3f, 6-Chloro-3-(4-nitro-phenyl)-2-thioxo-2,3-dihydro-1H-quinazolin-4-one], in experiment [1] (Homo sapiens, LoVo), the viability at 200 µg/mL worked out at 22.7 ± 2.08%; the concentration for half-maximal inhibition (IC50) is 384 µM and 128 µg/mL. For the same molecule, the IC50 in experiment [1] is 384 µM. In experiment [2], the “Early apoptotic cells (Annexin-V positive, PI negative)” value is reported as 12.97%; the “Late apoptotic cells (Annexin-V and PI positive)” value was determined as 4.66%. The “Cells in G2/M phase (%DIP G2/M)” value in experiment [3] was determined as 29.16%. Also, in experiment [4], the “Fold change of LDHA inhibition as compared to 0.1 mg/mL” value amounted to 1.59 fold, the inhibition at 100 µg/mL is 21.5 ± 1.56% and the inhibition at 200 µg/mL was 34.2 ± 1.77%.
As for `O=c1c2cc(Cl)ccc2[nH]c(=S)n1-c1cccc(C(F)(F)F)c1` [Compound 3a, 6-Chloro-2-thioxo-3-(3-trifluoromethyl-phenyl)-2,3-dihydro-1H-quinazolin-4-one], in experiment [1] (Homo sapiens, LoVo), the viability at 200 µg/mL was determined as 23.5 ± 1.5%; the IC50 is 294 µM and 105 µg/mL. Also, half-maximal inhibition in experiment [1] (IC50) required 294 µM. In experiment [2], the “Early apoptotic cells (Annexin-V positive, PI negative)” value is on record as 18.29%; the “Late apoptotic cells (Annexin-V and PI positive)” value is 11.01%. Also, the “Cells in G2/M phase (%DIP G2/M)” value in experiment [3] is 22.64%. In experiment [4], the “Fold change of LDHA inhibition as compared to 0.1 mg/mL” value worked out at 1.84 fold, the inhibition at 100 µg/mL was determined as 53.5 ± 1.13% and the inhibition at 200 µg/mL amounted to 98.5 ± 1.34%. Also, in experiment [4] (mean ± SD of three replicates), the IC50 is 273 µM.

Values taken from article PMC10610505, “Synthesis and Biological Evaluation of Some New 3-Aryl-2-thioxo-2,3-dihydroquinazolin-4(1H)-ones and 3-Aryl-2-(benzylthio)quinazolin-4(3H)-ones as Antioxidants; COX-2, LDHA, α-Glucosidase and α-Amylase Inhibitors; and Anti-Colon Carcinoma and Apoptosis-Inducing Agents” (Pharmaceuticals, 2023).
